Biological target: CXCR4 (Homo sapiens, UniProt P61073)
Assay: FLIPR Tetra calcium mobilization assay
Format: cell-based
Conditions: Human CD4+ T-Cells; CXCL12 added; FLIPR Calcium 4 assay kit
Description: FLIPR Tetra Calcium Mobilization Assay The FLIPR Tetra calcium mobilization assay was performed by HD Bioscience. Briefly, The Molecular Devices, Fluorescent Imaging Plate Reader (FLIPR) Tetra was used in this assay. Excitation was achieved through unique placement of LED's within the instrument and emission captured by a CCD camera (EMCCD camera for FI and ICCD camera for luminescence). The homogeneous FLIPR Calcium 4 assay kit from Molecular Devices was used as the fluorescence reagent. Compounds were solubilized in 100% dimethyl sulfoxide (DMSO) to a concentration of 30 mM. A 10-point, 4-fold, intermediate dilution series was created in 100% DMSO with a top concentration of 4 mM and a bottom concentration of 0.01 μM. A near assay ready, direct dilution plate ([…]) was prepared from this compound dilution plate by transferring 1 μL of each dilution of compound in 100% DMSO to a Greiner #781201 plate. In addition, each […] plate also contained positive and negative control wells to define the upper and lower limits for the assay signal. The final assay concentration range of compound was 10 μM to 0.035 nM in 0.5% DMSO. Human CD^4+ T-Cells were isolated from human whole blood and subsequently activated and expanded using a CD3/CD28 expansion kit (Life Technologies). The cells were frozen in ThermoFisher-formulated Recovery Cell Culture Freezing Medium containing 10% Dimethyl sulfoxide (DMSO) and 10% Fetal Bovine Serum (FBS) (ThermoFisher Catalog No. 10100147). When used, cells were resuspended using room temperature 1× HBSS/20 mM HEPES/0.005% P-104 assay buffer, adjusted the volume of the suspension to achieve a cell concentration of 2.5×10^6 cells/mL. 2× Calcium 4 dye (20 μL/well) were added and the mixture were centrifuged briefly ( 10 s) and stopped when it reached 1000 rpm. The plates were allowed to equilibrate before compounds and CXCL12 were added to the plates. The raw data were analyzed using Abase. The percent (%) effect at each concentration of compound was calculated by Abase and was based on and relative to the amount of calcium produced in the positive and negative control wells contained within each assay plate. The concentrations and % effect values for tested compounds were plotted by Abase and the concentration of compound required for 50% effect (IC50) was determined with a four-parameter logistic dose response equation. FIGS. 3 and 4 summarize the results of Compounds A78 and A83 in the calcium mobilization assay.

CXCR4, sequence (P61073 whole entry): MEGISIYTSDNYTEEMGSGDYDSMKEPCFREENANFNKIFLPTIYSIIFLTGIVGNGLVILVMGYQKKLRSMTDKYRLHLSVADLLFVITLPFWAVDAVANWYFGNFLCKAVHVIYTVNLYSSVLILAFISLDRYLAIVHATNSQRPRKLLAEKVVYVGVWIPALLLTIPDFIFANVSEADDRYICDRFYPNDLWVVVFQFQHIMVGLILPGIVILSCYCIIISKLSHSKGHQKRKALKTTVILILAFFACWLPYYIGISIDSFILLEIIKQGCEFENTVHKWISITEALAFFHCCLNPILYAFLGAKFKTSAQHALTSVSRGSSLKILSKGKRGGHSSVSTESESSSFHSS

| IC50 | SMILES |
| --- | --- |
| 1700 nM | CN1CCN(c2cc(CN(C)c3cccc4cccnc34)nc(N(C)C)n2)CC1 [Compound D11] |
| 2.4 nM | Cc1nc(CN(C)c2cccc3cccnc23)cc(N2CCC(N(C)C)CC2)n1 [Compound D6] |
| 2.3 nM | Cc1nc(CN(c2cccc3cccnc23)C2CC2)cc(N2CCN(C)CC2)n1 [Compound D26] |
| 2880 nM | Cc1nc(CN(C)c2ccc(NS(C)(=O)=O)c3cccnc23)cc(N2CCN(C)CC2)n1 [Compound D57, N-(8-(methyl((2-methyl-6-(4-methylpiperazin-1-yl)pyrimidin-4-yl)methyl)amino)quinolin-5-yl)methanesulfonamide] |
| 12.7 nM | Cc1nc(CN(CCCC(=O)OC(C)(C)C)c2cccc3cccnc23)cc(N2CCN(C)CC2)n1 [Compound D29] |
| 74 nM | Cc1nc(CN(C)c2c(F)ccc3cccnc23)cc(N2CCN(C)CC2)n1 [Compound D17] |
| 0.53 nM | CCN(Cc1cc(N2CCN(C)CC2)nc(C)n1)c1cc(C)cc2cccnc12 [Compound D32] |
| 3380 nM | Cc1nc(CN(C)c2ccc(S(C)(=O)=O)c3cccnc23)cc(N2CCN(C)CC2)n1 [Compound D43, N-methyl-N-((2-methyl-6-(4-methylpiperazin-1-yl)pyrimidin-4-yl)methyl)-5-(methylsulfonyl)quinolin-8-amine] |
| 53 nM | Cc1nc(CN(C)c2cc(C#N)cc3cccnc23)cc(N2CCN(C)CC2)n1 [Compound D46] |
| 7.2 nM | CN1CCN(c2cc(CN(C)c3cccc4cccnc34)nc(CO)n2)CC1 [Compound D54] |
| 13 nM | Cc1nc(CN(C)c2cc(S(C)(=O)=O)cc3cccnc23)cc(N2CCN(C)CC2)n1 [Compound D47] |
| 0.4 nM | Cc1cc(N(C)Cc2cc(N3CCN(C)CC3)nc(C)n2)c2ncccc2c1 [Compound D15] |
| 0.63 nM | Cc1nc(CN(C)c2cccc3cccnc23)cc(N2CCCN(C)CC2)n1 [Compound D3] |
| 0.51 nM | Cc1nc(CN(C)c2cccc3cccnc23)c(C)c(N2CCN(C)CC2)n1 [Compound D33] |
| 1.2 nM | Cc1nc(CN(C)c2cccc3cccnc23)c(Cl)c(N2CCN(C)CC2)n1 [Compound D35] |
| 965 nM | Cc1nc(CN(C)c2cncc3cccnc23)cc(N2CCN(C)CC2)n1 [Compound D22, N-methyl-N-((2-methyl-6-(4-methylpiperazin-1-yl)pyrimidin-4-yl)methyl)-1,6-naphthyridin-8-amine] |

| IC50 | SMILES |
| --- | --- |
| 39 nM | Cc1nc(CN(C)c2cc(CO)cc3cccnc23)cc(N2CCN(C)CC2)n1 [Compound D55, (8-(methyl((2-methyl-6-(4-methylpiperazin-1-yl)pyrimidin-4-yl)methyl)amino)quinolin-6-yl)methanol] |
| 0.79 nM | Cc1nc(CN(C)c2cc(F)cc3cccnc23)cc(N2CCN(C)CC2)n1 [Compound D18] |
| 0.61 nM | CSc1nc(CN(C)c2cccc3cccnc23)cc(N2CCN(C)CC2)n1 [Compound D12] |
| 0.4 nM | Cc1nc(CN(C)c2ccc(F)c3cccnc23)cc(N2CCN(C)CC2)n1 [Compound D19] |
| 0.83 nM | Cc1nc(CN(C)c2cccc3cccnc23)c(F)c(N2CCN(C)CC2)n1 [Compound D34] |
| 928 nM | Cc1nc(CN(C)c2c(C(F)(F)F)ccc3cccnc23)cc(N2CCN(C)CC2)n1 [Compound D48] |
| 1.25 nM | Cc1nc(CN(CCCC(N)=O)c2cccc3cccnc23)cc(N2CCN(C)CC2)n1 [Compound D31, 4-(((2-methyl-6-(4-methylpiperazin-1-yl)pyrimidin-4-yl)methyl)(quinolin-8-yl)amino)butanamide] |
| 6.7 nM | Cc1nc(CN(C)c2cc(F)cc3cccnc23)cc(N2CCN(C)C(CO)C2)n1 (stereo not drawn) [Compound D53] |
| 1.4 nM | Cc1nc(CN(C)c2cccc3cccnc23)cc(N2CCN(C3CC3)CC2)n1 [Compound D8] |
| 0.95 nM | Cc1nc(CN(C)c2cccc3cccnc23)c(CO)c(N2CCN(C)CC2)n1 [Compound D37] |
| 2090 nM | Cc1nc(CN(C)c2c(S(C)(=O)=O)ccc3cccnc23)cc(N2CCN(C)CC2)n1 [Compound D51] |
| 2.7 nM | Cc1nc(CN(C)c2ccc(C)c3cccnc23)cc(N2CCN(C)CC2)n1 [Compound D16] |
| 0.75 nM | Cc1nc(CN(C)c2cccc3cccnc23)cc(N2CCC(N(C)C)C2)n1 (stereo not drawn) [Compound D7] |
| 2.1 nM | Cc1nc(CN(C)c2cccc3cccnc23)cc(N2CCN(CCO)CC2)n1 [Compound D5] |
| 0.088 nM | CN1CCN(c2cccc3nc(CN(C)c4cccc5cccnc45)c(CO)n23)CC1 [Compound D39] |

Continued, compound first:

| SMILES | IC50 |
| --- | --- |
| C[C@@H](c1ccccn1)N(C)Cc1cc(N2CCN3CCC[C@@H]3C2)nc(CO)n1 [Compound A82] | 2.5 nM |
| Cc1nc(CN(C)[C@@H](C)c2ccccn2)cc(N2CCN(C)CC2CO)n1 (stereo partly drawn) [Compound A84] | 3 nM |
| Cc1nc(CN(C)[C@H]2CCOc3cccnc32)cc(N2CCN(C)CC2)n1 [Compound A91] | 0.032 nM |
| Cc1cccnc1[C@@H]1CCCN1Cc1nc2cccc(N3CCN(C)CC3)n2c1CO [Compound C39, (S)-(5-(4-methylpiperazin-1-yl)-2-((2-(3-methylpyridin-2-yl)pyrrolidin-1-yl)methyl)imidazo[1,2-a]pyridin-3-yl)methanol] | 0.1 nM |
| Cc1nc(CN2CCC[C@H]2c2ncccc2C)cc(N2CCC(N(C)C)CC2)n1 [Compound C37] | 12 nM |
| Cc1nc(CN(C)[C@@H](C)c2ccccn2)c(CO)c(N2CCN(C)CC2)n1 [Compound A85, (S)-(2-methyl-4-((methyl(1-(pyridin-2-yl)ethyl)amino)methyl)-6-(4-methylpiperazin-1-yl)pyrimidin-5-yl)methanol] | 0.99 nM |
| C[C@@H](c1ccccn1)N(C)Cc1nc2cccc(N3CCN4CCC[C@@H]4C3)n2c1CO [Compound A100] | 0.29 nM |
| Cc1nc(CN(C)[C@@H](C)c2ccccn2)c(CO)c(N2CCN(C)[C@@H](C)C2)n1 [Compound A88] | 0.3 nM |
| Cc1nc(CN(C)[C@@H](C)c2ccccn2)c(CO)c(N2CCN3CCC[C@H]3C2)n1 [Compound A87] | 0.18 nM |
| Cc1cccnc1[C@@H]1CCCN1Cc1cn2c(N3CCN(C)CC3)cccc2n1 [Compound C38, (S)-5-(4-methylpiperazin-1-yl)-2-((2-(3-methylpyridin-2-yl)pyrrolidin-1-yl)methyl)imidazo11,2-alpyridine] | 0.2 nM |
| C[C@@H](c1ccccn1)N(C)Cc1cn2c(N3CCN4CCC[C@@H]4C3)cccc2n1 [Compound A98] | 0.15 nM |
| Cc1nc(CN(C)[C@@H](C)c2ccccn2)cc(N2CCN3CCC[C@H]3C2)n1 [Compound A79] | 0.22 nM |
| CCN(Cc1cc(N2CCN(C)CC2)nc(C)n1)[C@@H](C)c1ccccn1 [Compound A80] | 0.18 nM |
| C[C@@H](c1ccccn1)N(C)Cc1nc2cccc(N3CCN4CCC[C@H]4C3)n2c1CO [Compound A99] | 0.39 nM |
| C[C@@H](c1ccccn1)N(C)Cc1cn2c(N3CCN4CCC[C@H]4C3)cccc2n1 [Compound A97] | 0.25 nM |
| Cc1nc(CN(C)[C@@H](C)c2ccccn2)cc(N2CCN3CCC[C@@H]3C2)n1 [Compound A78] | 0.062 nM |
| COc1cccnc1[C@H](C)N(C)Cc1cc(N2CCN(C)CC2)nc(C)n1 [Compound A92] | 118 nM |
| Cc1nc(CN2CCC[C@H]2c2ncccc2C)c(F)c(N2CCN(C)CC2)n1 [Compound C33] | 1.1 nM |
| Cc1nc(CN2CCC[C@H]2c2ncccc2C)cc(NCCN2CCOCC2)n1 [Compound C35] | 2.7 nM |
| Cc1nc(CN(C)[C@@H](C)c2ccccn2)c(CO)c(N2CCN(C)[C@H](C)C2)n1 [Compound A89] | 0.13 nM |

Source: patent publication US11396501B2, “Heteroaryl compounds as CXCR4 inhibitors, composition and method using the same” (CGENETECH (SUZHOU, CHINA) CO., LTD., priority 2017, dated 2022)
